Values joined by “and” are separate entries in the source; they are usually repeats but may differ in a detail not shown here. Equal values may be shown once. Read-outs that look alike come from different tables or passages of the source.
Target: C. elegans (N2) complex I (NADH:ubiquinone oxidoreductase) (Caenorhabditis elegans, UniProt P24887+Q93873+Q94360)
Assay: biochemical
Format: biochemical
Conditions: for remaining activity at 0.125 µM / remaining activity at 0.313 µM / remaining activity at 0.625 µM / remaining activity at 1.5 µM / remaining activity at 3 µM / remaining activity at 15 µM / remaining activity at 37.5 µM / remaining activity at 75 µM: wild-type C. elegans mitochondria, read-out: percent (%) in vitro complex I activity relative to solvent control
Procedure, shortened: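 Complex I rate: initial linear slope of A600 over 15 min, expressed as percent of solvent control. Triple freeze-thawed mitochondria (0.2 mg/mL) in KPi pH 7.5, BSA 3 mg/mL, NADH 80 μM, decylubiquinone 60 μM, DCIP 160 μM, antimycin A, KCN.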

[1] = C. elegans, Mean of replicates, read-out: Complex I activity, dose-response data
[2] = C. elegans, individual replicates (Rep), read-out: Complex I activity, dose-response data

C. elegans (N2) complex I (NADH:ubiquinone oxidoreductase), sequence (Q94360 17-199): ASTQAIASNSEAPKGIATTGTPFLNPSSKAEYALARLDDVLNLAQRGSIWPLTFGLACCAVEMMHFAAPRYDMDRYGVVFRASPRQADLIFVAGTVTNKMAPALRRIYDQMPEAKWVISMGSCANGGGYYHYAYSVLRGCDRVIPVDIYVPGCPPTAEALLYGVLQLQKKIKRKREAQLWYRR
C. elegans (N2) complex I (NADH:ubiquinone oxidoreductase), sequence (P24887 whole entry): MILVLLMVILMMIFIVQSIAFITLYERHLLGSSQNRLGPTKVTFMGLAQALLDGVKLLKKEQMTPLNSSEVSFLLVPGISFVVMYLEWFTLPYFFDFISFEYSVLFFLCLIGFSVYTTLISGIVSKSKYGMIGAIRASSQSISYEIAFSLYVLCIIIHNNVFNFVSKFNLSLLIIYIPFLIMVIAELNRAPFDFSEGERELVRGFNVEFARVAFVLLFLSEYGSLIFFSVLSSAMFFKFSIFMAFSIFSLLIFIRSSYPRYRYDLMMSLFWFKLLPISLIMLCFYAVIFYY
C. elegans (N2) complex I (NADH:ubiquinone oxidoreductase), sequence (Q93873 31-482): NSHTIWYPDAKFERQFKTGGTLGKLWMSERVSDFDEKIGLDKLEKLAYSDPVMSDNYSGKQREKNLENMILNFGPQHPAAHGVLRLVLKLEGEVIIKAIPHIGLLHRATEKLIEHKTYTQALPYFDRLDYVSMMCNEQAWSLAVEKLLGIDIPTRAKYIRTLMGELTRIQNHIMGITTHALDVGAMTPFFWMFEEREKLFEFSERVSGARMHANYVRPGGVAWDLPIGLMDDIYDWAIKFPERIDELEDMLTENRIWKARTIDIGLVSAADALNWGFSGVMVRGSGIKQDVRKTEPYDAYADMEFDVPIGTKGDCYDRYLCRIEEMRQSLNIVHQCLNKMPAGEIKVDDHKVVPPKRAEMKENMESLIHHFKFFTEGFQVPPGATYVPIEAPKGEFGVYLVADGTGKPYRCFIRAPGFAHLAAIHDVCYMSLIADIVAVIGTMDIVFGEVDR

SMILES: COc1cc2c(cc1OC)C(c1ccc(-c3ccc(Cl)c(Cl)c3)o1)=NCC2 [NPD3577]
- remaining activity at 0.125 µM (mean of replicates): 96.8%
- remaining activity at 0.125 µM (single replicate): 96.7%
- remaining activity at 0.313 µM (mean of replicates): 92.4%
- remaining activity at 0.313 µM (single replicate): 92.5%
- remaining activity at 0.625 µM (mean of replicates): 100%
- remaining activity at 0.625 µM (single replicate): 100%
- remaining activity at 1.5 µM (mean of replicates): 94.3%
- remaining activity at 1.5 µM (single replicate): 96.2%
- remaining activity at 3 µM (mean of replicates): 92.6%
- remaining activity at 3 µM (single replicate): 93.9%
- remaining activity at 15 µM (mean of replicates): 62.2%
- remaining activity at 15 µM (single replicate): 62.5%
- remaining activity at 37.5 µM (mean of replicates): 42.6%
- remaining activity at 37.5 µM (single replicate): 37.8%
- remaining activity at 75 µM (mean of replicates): 40.7%
- remaining activity at 75 µM (single replicate): 36.7%
- activity at 100 µM (100 µM compound, relative to solvent control, mean (SEM), read-out: % Activity Complex I): 36.8%
- Percent in vitro activity, Complex I (single replicate Rep1-Rep4) (100 μM of NPD compound, C. elegans mitochondria, individual biological replicates, 100 µM): 43.782% and 34.898% and 43.141%
- activity at 100 µM (100 μM of NPD compound, C. elegans mitochondria, individual biological replicates, read-out: Percent in vitro activity, Complex I (single replicate Rep1-Rep4)): 25.5%
- activity at 100 µM (100 μM of NPD compound, C. elegans mitochondria, mean of four biological replicates, read-out: Percent in vitro activity, Complex I (Mean)): 36.8%
- activity at 0.0001 µM [1]: 100%
- activity at 0.0001 µM [2]: 100%
- activity at 0.0005 µM (C. elegans, dose 0.0005 µM, Mean of replicates, read-out: Complex I activity, dose-response data): 101%
- Complex I activity, dose-response data (C. elegans, dose 0.0005 µM, individual replicates (Rep)): 102.944 and 101.488 and 99.964
- activity at 0.0005 µM (C. elegans, dose 0.0005 µM, individual replicates (Rep), read-out: Complex I activity, dose-response data): 99.8%
- activity at 0.001 µM (C. elegans, dose 0.001 µM, Mean of replicates, read-out: Complex I activity, dose-response data): 107%
- Complex I activity, dose-response data (C. elegans, dose 0.001 µM, individual replicates (Rep)): 100.123 and 101.601 and 102.139 and 122.392
- activity at 0.0025 µM (C. elegans, dose 0.0025 µM, Mean of replicates, read-out: Complex I activity, dose-response data): 108%
- Complex I activity, dose-response data (C. elegans, dose 0.0025 µM, individual replicates (Rep)): 107.455 and 110.182 and 112.130
- activity at 0.0025 µM (C. elegans, dose 0.0025 µM, individual replicates (Rep), read-out: Complex I activity, dose-response data): 102%
- activity at 0.005 µM (C. elegans, dose 0.005 µM, Mean of replicates, read-out: Complex I activity, dose-response data): 104%
- Complex I activity, dose-response data (C. elegans, dose 0.005 µM, individual replicates (Rep)): 104.715 and 108.539 and 101.437
- activity at 0.005 µM (C. elegans, dose 0.005 µM, individual replicates (Rep), read-out: Complex I activity, dose-response data): 100%
- activity at 0.013 µM (C. elegans, dose 0.013 µM, Mean of replicates, read-out: Complex I activity, dose-response data): 97.9%
- Complex I activity, dose-response data (C. elegans, dose 0.013 µM, individual replicates (Rep)): 98.157 and 103.636 and 111.482 and 78.345
- activity at 0.025 µM (C. elegans, dose 0.025 µM, Mean of replicates, read-out: Complex I activity, dose-response data): 98.1%
- Complex I activity, dose-response data (C. elegans, dose 0.025 µM, individual replicates (Rep)): 97.798 and 102.639 and 113.034 and 78.823
- activity at 0.063 µM (C. elegans, dose 0.063 µM, Mean of replicates, read-out: Complex I activity, dose-response data): 101%
- Complex I activity, dose-response data (C. elegans, dose 0.063 µM, individual replicates (Rep)): 101.240 and 102.785 and 102.967
- activity at 0.063 µM (C. elegans, dose 0.063 µM, individual replicates (Rep), read-out: Complex I activity, dose-response data): 97%
- activity at 0.125 µM (C. elegans, dose 0.125 µM, Mean of replicates, read-out: Complex I activity, dose-response data): 96.8%
- Complex I activity, dose-response data (C. elegans, dose 0.125 µM, individual replicates (Rep)): 97.708 and 99.291 and 93.354
- activity at 0.125 µM (C. elegans, dose 0.125 µM, individual replicates (Rep), read-out: Complex I activity, dose-response data): 96.7%
- activity at 0.313 µM (C. elegans, dose 0.313 µM, Mean of replicates, read-out: Complex I activity, dose-response data): 92.4%
- Complex I activity, dose-response data (C. elegans, dose 0.313 µM, individual replicates (Rep)): 97.105 and 93.945 and 86.205
- activity at 0.313 µM (C. elegans, dose 0.313 µM, individual replicates (Rep), read-out: Complex I activity, dose-response data): 92.5%
- activity at 0.625 µM [1]: 100%
- activity at 0.625 µM [2]: 100%
- activity at 1.5 µM (C. elegans, dose 1.5 µM, Mean of replicates, read-out: Complex I activity, dose-response data): 94.3%
- Complex I activity, dose-response data (C. elegans, dose 1.5 µM, individual replicates (Rep)): 94.111 and 90.424 and 96.414
- activity at 1.5 µM (C. elegans, dose 1.5 µM, individual replicates (Rep), read-out: Complex I activity, dose-response data): 96.2%
- activity at 3 µM (C. elegans, dose 3 µM, Mean of replicates, read-out: Complex I activity, dose-response data): 92.6%
- Complex I activity, dose-response data (C. elegans, dose 3 µM, individual replicates (Rep)): 91.612 and 93.694 and 91.331
- activity at 3 µM (C. elegans, dose 3 µM, individual replicates (Rep), read-out: Complex I activity, dose-response data): 93.9%
- activity at 15 µM (C. elegans, dose 15 µM, Mean of replicates, read-out: Complex I activity, dose-response data): 62.2%
- Complex I activity, dose-response data (C. elegans, dose 15 µM, individual replicates (Rep)): 63.065 and 59.782 and 63.349
- activity at 15 µM (C. elegans, dose 15 µM, individual replicates (Rep), read-out: Complex I activity, dose-response data): 62.5%
- activity at 37.5 µM (C. elegans, dose 37.5 µM, Mean of replicates, read-out: Complex I activity, dose-response data): 42.6%
- Complex I activity, dose-response data (C. elegans, dose 37.5 µM, individual replicates (Rep)): 41.693 and 41.389 and 49.686
- activity at 37.5 µM (C. elegans, dose 37.5 µM, individual replicates (Rep), read-out: Complex I activity, dose-response data): 37.8%
- activity at 75 µM (C. elegans, dose 75 µM, Mean of replicates, read-out: Complex I activity, dose-response data): 40.7%
- Complex I activity, dose-response data (C. elegans, dose 75 µM, individual replicates (Rep)): 47.397 and 37.818 and 40.786
- activity at 75 µM (C. elegans, dose 75 µM, individual replicates (Rep), read-out: Complex I activity, dose-response data): 36.7%
- IC50 (wild-type (N2) mitochondria, read-out: C. elegans Complex I IC50): 12.1 µM
